In PubChem BioAssay (NCI):
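A five-concentration, 48-hour dose response in 96-well plates underlies each endpoint, interpolated linearly between surrounding concentrations. GI50 = concentration required for 50% inhibition of growth. The concentration for full growth arrest is given as TGI.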

What was measured:
Experiment in all cases: NCI tumour cell line growth inhibition, 48 h
SK-MEL-5 melanoma = test system: SK-MEL-5 melanoma
K-562 leukemia = test system: K-562 leukemia
SN12C renal = test system: SN12C renal
NCI/ADR-RES ovarian = test system: NCI/ADR-RES ovarian
HT29 colon = test system: HT29 colon
HS 578T breast = test system: HS 578T breast
UACC-62 melanoma = test system: UACC-62 melanoma
SNB-75 CNS = test system: SNB-75 CNS
T-47D breast = test system: T-47D breast
HL-60(TB) leukemia = test system: HL-60(TB) leukemia
UO-31 renal = test system: UO-31 renal
A498 renal = test system: A498 renal
NCI-H522 lung = test system: NCI-H522 lung
OVCAR-5 ovarian = test system: OVCAR-5 ovarian
TK-10 renal = test system: TK-10 renal
MALME-3M melanoma = test system: MALME-3M melanoma
MDA-MB-435 = test system: MDA-MB-435
SF-268 CNS = test system: SF-268 CNS
NCI-H23 lung = test system: NCI-H23 lung
SW-620 colon = test system: SW-620 colon
CCRF-CEM leukemia = test system: CCRF-CEM leukemia
SF-295 CNS = test system: SF-295 CNS
HCT-15 colon = test system: HCT-15 colon
OVCAR-4 ovarian = test system: OVCAR-4 ovarian
OVCAR-8 ovarian = test system: OVCAR-8 ovarian
CAKI-1 renal = test system: CAKI-1 renal
DU-145 prostate = test system: DU-145 prostate
MCF7 breast = test system: MCF7 breast
COLO 205 colon = test system: COLO 205 colon
SF-539 CNS = test system: SF-539 CNS
SK-MEL-28 melanoma = test system: SK-MEL-28 melanoma
U251 CNS = test system: U251 CNS
UACC-257 melanoma = test system: UACC-257 melanoma
OVCAR-3 ovarian = test system: OVCAR-3 ovarian
KM12 colon = test system: KM12 colon
MDA-MB-231 breast = test system: MDA-MB-231 breast
HOP-62 NSCLC = test system: HOP-62 NSCLC
IGROV1 ovarian = test system: IGROV1 ovarian
SK-OV-3 ovarian = test system: SK-OV-3 ovarian
SR leukemia = test system: SR leukemia
786-0 renal = test system: 786-0 renal
A549 NSCLC = test system: A549 NSCLC
NCI-H460 lung = test system: NCI-H460 lung
M14 melanoma = test system: M14 melanoma
ACHN renal = test system: ACHN renal
PC-3 prostate = test system: PC-3 prostate
MOLT-4 leukemia = test system: MOLT-4 leukemia
LOX IMVI melanoma = test system: LOX IMVI melanoma
HCT-116 colon = test system: HCT-116 colon
RPMI-8226 leukemia = test system: RPMI-8226 leukemia
HOP-92 NSCLC = test system: HOP-92 NSCLC
HCC-2998 colon = test system: HCC-2998 colon
NCI-H226 lung = test system: NCI-H226 lung
SK-MEL-2 melanoma = test system: SK-MEL-2 melanoma
BT-549 breast = test system: BT-549 breast
RXF 393 renal = test system: RXF 393 renal
SNB-19 CNS = test system: SNB-19 CNS

For `O=C(Nc1cccc(-n2cc(-c3ccncc3)c(-c3ccc(Cl)c(O)c3)n2)c1)Nc1cccc(C(F)(F)F)c1`, the GI50 (SK-MEL-5 melanoma) was 1.3 µM, the TGI (SK-MEL-5 melanoma) was 4.71 µM and the GI50 (K-562 leukemia) was 1.44 µM. It also gave a TGI (K-562 leukemia) greater than 32.5 µM, a GI50 (SN12C renal) of 2.01 µM and a TGI (SN12C renal) greater than 32.5 µM. For the same molecule, the GI50 (NCI/ADR-RES ovarian) was 2.14 µM, the TGI (NCI/ADR-RES ovarian) was greater than 32.5 µM and the GI50 (HT29 colon) was 9.82 µM. It also gave a TGI (HT29 colon) greater than 32.5 µM, a GI50 (HS 578T breast) of 3.31 µM and a TGI (HS 578T breast) greater than 32.5 µM. For the same molecule, the GI50 (UACC-62 melanoma) was 1.65 µM, the TGI (UACC-62 melanoma) was 6.91 µM and the GI50 (SNB-75 CNS) was 3.65 µM. For the same molecule, the TGI (SNB-75 CNS) was greater than 32.5 µM, the GI50 (T-47D breast) was 2.47 µM and the TGI (T-47D breast) was greater than 32.5 µM. It also gave a GI50 (HL-60(TB) leukemia) of 1.45 µM, a TGI (HL-60(TB) leukemia) greater than 32.5 µM and a GI50 (UO-31 renal) of 1.86 µM. For the same molecule, the TGI (UO-31 renal) was greater than 32.5 µM, the GI50 (A498 renal) was 2.24 µM and the TGI (A498 renal) was greater than 32.5 µM. The GI50 (NCI-H522 lung) was 1.46 µM, the TGI (NCI-H522 lung) was 14.5 µM and the GI50 (OVCAR-5 ovarian) was 13.7 µM. For the same molecule, the TGI (OVCAR-5 ovarian) was greater than 32.5 µM, the GI50 (TK-10 renal) was 2.12 µM and the TGI (TK-10 renal) was greater than 32.5 µM. For the same molecule, the GI50 (MALME-3M melanoma) was 1.81 µM, the TGI (MALME-3M melanoma) was 20.1 µM and the GI50 (MDA-MB-435) was 1.49 µM. It also gave a TGI (MDA-MB-435) of 12.6 µM, a GI50 (SF-268 CNS) of 1.95 µM and a TGI (SF-268 CNS) of 15.8 µM. It also gave a GI50 (NCI-H23 lung) of 1.9 µM, a TGI (NCI-H23 lung) greater than 32.5 µM and a GI50 (SW-620 colon) of 3.82 µM. For the same molecule, the TGI (SW-620 colon) was greater than 32.5 µM, the GI50 (CCRF-CEM leukemia) was 1.4 µM and the TGI (CCRF-CEM leukemia) was greater than 32.5 µM. For the same molecule, the GI50 (SF-295 CNS) was 0.962 µM, the TGI (SF-295 CNS) was 4.26 µM and the GI50 (HCT-15 colon) was 1.51 µM. For the same molecule, the TGI (HCT-15 colon) was greater than 32.5 µM, the GI50 (OVCAR-4 ovarian) was 3.18 µM and the TGI (OVCAR-4 ovarian) was greater than 32.5 µM. It also gave a GI50 (OVCAR-8 ovarian) of 1.57 µM, a TGI (OVCAR-8 ovarian) greater than 32.5 µM and a GI50 (CAKI-1 renal) of 1.75 µM. For the same molecule, the TGI (CAKI-1 renal) was greater than 32.5 µM, the GI50 (DU-145 prostate) was 1.76 µM and the TGI (DU-145 prostate) was greater than 32.5 µM. It also gave a GI50 (MCF7 breast) of 1.34 µM, a TGI (MCF7 breast) greater than 32.5 µM and a GI50 (COLO 205 colon) of 7.9 µM. For the same molecule, the TGI (COLO 205 colon) was 23.8 µM, the GI50 (SF-539 CNS) was 3.54 µM and the TGI (SF-539 CNS) was 11.6 µM. It also gave a GI50 (SK-MEL-28 melanoma) of 4.11 µM, a TGI (SK-MEL-28 melanoma) greater than 32.5 µM and a GI50 (U251 CNS) of 1.59 µM. The TGI (U251 CNS) was 7.65 µM, the GI50 (UACC-257 melanoma) was 4.34 µM and the TGI (UACC-257 melanoma) was 19.1 µM. It also gave a GI50 (OVCAR-3 ovarian) of 1.06 µM, a TGI (OVCAR-3 ovarian) of 6.13 µM and a GI50 (KM12 colon) of 1.33 µM. It also gave a TGI (KM12 colon) greater than 32.5 µM, a GI50 (MDA-MB-231 breast) of 3.59 µM and a TGI (MDA-MB-231 breast) of 26.8 µM. The GI50 (HOP-62 NSCLC) was 6.86 µM, the TGI (HOP-62 NSCLC) was greater than 32.5 µM and the GI50 (IGROV1 ovarian) was 1.64 µM. The TGI (IGROV1 ovarian) was greater than 32.5 µM, the GI50 (SK-OV-3 ovarian) was 4.97 µM and the TGI (SK-OV-3 ovarian) was greater than 32.5 µM. For the same molecule, the GI50 (SR leukemia) was 1.82 µM, the TGI (SR leukemia) was 20 µM and the GI50 (786-0 renal) was 4.69 µM. It also gave a TGI (786-0 renal) greater than 32.5 µM, a GI50 (A549 NSCLC) of 1.37 µM and a TGI (A549 NSCLC) greater than 32.5 µM. The GI50 (NCI-H460 lung) was 1.18 µM, the TGI (NCI-H460 lung) was 29 µM and the GI50 (M14 melanoma) was 1.4 µM. It also gave a TGI (M14 melanoma) of 10.8 µM, a GI50 (ACHN renal) of 1.29 µM and a TGI (ACHN renal) greater than 32.5 µM. For the same molecule, the GI50 (PC-3 prostate) was 0.948 µM, the TGI (PC-3 prostate) was 22.4 µM and the GI50 (MOLT-4 leukemia) was 1.92 µM. It also gave a TGI (MOLT-4 leukemia) greater than 32.5 µM, a GI50 (LOX IMVI melanoma) of 2.53 µM and a TGI (LOX IMVI melanoma) of 9.58 µM. It also gave a GI50 (HCT-116 colon) of 1.39 µM, a TGI (HCT-116 colon) of 8.26 µM and a GI50 (RPMI-8226 leukemia) of 1.34 µM. The TGI (RPMI-8226 leukemia) was greater than 32.5 µM, the GI50 (HOP-92 NSCLC) was 0.509 µM and the TGI (HOP-92 NSCLC) was 2.23 µM. It also gave a GI50 (HCC-2998 colon) of 7.26 µM, a TGI (HCC-2998 colon) greater than 32.5 µM and a GI50 (NCI-H226 lung) of 7.35 µM. It also gave a TGI (NCI-H226 lung) greater than 32.5 µM, a GI50 (SK-MEL-2 melanoma) of 2.02 µM and a TGI (SK-MEL-2 melanoma) of 10.8 µM. For the same molecule, the GI50 (BT-549 breast) was 6.51 µM, the TGI (BT-549 breast) was 21.4 µM and the GI50 (RXF 393 renal) was 3.02 µM. For the same molecule, the TGI (RXF 393 renal) was 12 µM, the GI50 (SNB-19 CNS) was 1.91 µM and the TGI (SNB-19 CNS) was greater than 32.5 µM.
